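How tested: cells in 96-well plates exposed to compound for 48 hours at five concentrations. Here, GI50 denotes the concentration required for 50% inhibition of growth.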 Calls of active or inactive are those of the source. Cut-off read from the data, not from the text of the source: active = GI50 up to about 1.1 µM and inactive = higher.
Tests used:
Experiment in all cases: NCI anticancer screen, dose series, 48 h
NCI-H226 = system: NCI-H226
OVCAR-5 = system: OVCAR-5
HOP-62 = system: HOP-62
SF-295 = system: SF-295
HOP-92 = system: HOP-92
RXF 393 = system: RXF 393
NCI-H522 = system: NCI-H522
RPMI-8226 = system: RPMI-8226
HL-60 = system: HL-60
HCT-15 = system: HCT-15
LOX IMVI = system: LOX IMVI
Malme-3M = system: Malme-3M
UO-31 = system: UO-31
A498 = system: A498
SNB-19 = system: SNB-19
IGROV-1 = system: IGROV-1
HT-29 = system: HT-29
Hs-578T = system: Hs-578T
NCI/ADR-RES = system: NCI/ADR-RES
BT-549 = system: BT-549

Compound | GI50 (NCI-H226) | GI50 (OVCAR-5) | GI50 (HOP-62) | GI50 (SF-295) | GI50 (HOP-92) | GI50 (RXF 393) | GI50 (NCI-H522) | GI50 (RPMI-8226) | GI50 (HL-60) | GI50 (HCT-15) [µM] | GI50 (LOX IMVI) | GI50 (Malme-3M) | GI50 (UO-31) | GI50 (A498) | GI50 (SNB-19) | GI50 (IGROV-1) | GI50 (HT-29) | GI50 (Hs-578T) | GI50 (NCI/ADR-RES) | GI50 (BT-549)
CCOC(=O)C1C(c2ccccc2)=C(c2ccccc2)C(c2ccccc2)=C1c1ccccc1 | > 39.2 µM (inactive) | > 100 µM (inactive) | 12.6 µM (inactive) | 23.6 µM (inactive) | 12.4 µM (inactive) | 15.3 µM (inactive) | 49.8 µM (inactive) | 19.6 µM (inactive) | 57.1 µM (inactive) | 72.1 | 58.9 µM (inactive) | 40.9 µM (inactive) | 45.9 µM (inactive) | 20 µM (inactive) | 18.8 µM (inactive) | 29.2 µM (inactive) | > 100 µM (inactive) |  |  | 
Cc1ccc(-c2c(N)nc(NC#N)nc2CCC(=O)Nc2ccccc2[N+](=O)[O-])cc1 | > 100 µM (inactive) | > 100 µM (inactive) | > 100 µM (inactive) | > 100 µM (inactive) | > 100 µM (inactive) | > 100 µM (inactive) | 85.1 µM (inactive) | > 100 µM (inactive) | > 100 µM (inactive) | > 100 | > 100 µM (inactive) | > 100 µM (inactive) | > 100 µM (inactive) | > 100 µM (inactive) | > 100 µM (inactive) | > 100 µM (inactive) | > 100 µM (inactive) |  |  | 
CCOC(=O)N[C@H]1CCc2cc(O)c(OC)c(OC)c2-c2ccc(SC)c(=O)cc21 | 0.266 µM (active) | 0.614 µM (active) | 0.0386 µM (active) | 0.0123 µM (active) | 0.0103 µM (active) | < 0.01 µM (active) | 0.0177 µM (active) | < 0.0135 µM (active) | < 0.01 µM (active) | 0.0323 | 0.0234 µM (active) | 0.0111 µM (active) | 0.736 µM (active) | 0.0208 µM (active) | 0.0282 µM (active) | 0.0479 µM (active) | < 0.0135 µM (active) |  |  | 
NCCN1CC2CCC(CC2)C1 | > 10 µM (inactive) |  | > 10 µM (inactive) | > 10 µM (inactive) |  | > 10 µM (inactive) | > 10 µM (inactive) | > 10 µM (inactive) | > 10 µM (inactive) | > 10 | > 10 µM (inactive) | > 10 µM (inactive) | > 10 µM (inactive) | > 10 µM (inactive) | > 10 µM (inactive) | > 10 µM (inactive) | > 10 µM (inactive) | > 10 µM (inactive) | > 10 µM (inactive) | 
CC1(C)[C@@H](Cn2ccc(=O)[nH]c2=O)CC[C@@]1(C)CO | > 100 µM (inactive) | > 100 µM (inactive) | > 100 µM (inactive) | > 100 µM (inactive) | > 100 µM (inactive) | 59.2 µM (inactive) |  |  |  | > 100 | > 100 µM (inactive) |  | > 100 µM (inactive) | > 100 µM (inactive) | > 100 µM (inactive) |  |  | > 100 µM (inactive) | > 100 µM (inactive) | 
Cn1c2c(cc(-c3ccccc3)c1=O)COc1ccccc1-2 | 32.5 µM (inactive) | 14.5 µM (inactive) | 42.3 µM (inactive) | 25.8 µM (inactive) | 28.8 µM (inactive) | 36.1 µM (inactive) | 17.9 µM (inactive) | 20.2 µM (inactive) | 29.8 µM (inactive) | 32.1 | 15.2 µM (inactive) | 20.3 µM (inactive) | 27.5 µM (inactive) | 40.6 µM (inactive) | 40.9 µM (inactive) | 35.5 µM (inactive) | 19.9 µM (inactive) |  |  | 
COC(=O)c1ccccc1C1=C([N+](=O)[O-])C(c2ccccc2)C(C#N)=C(N)O1 (stereo not given) | > 100 µM (inactive) | > 100 µM (inactive) | > 100 µM (inactive) | > 100 µM (inactive) | 50.1 µM (inactive) | 30.2 µM (inactive) | 15 µM (inactive) | 34.5 µM (inactive) | 42.8 µM (inactive) | 19.8 | > 100 µM (inactive) |  |  |  | > 100 µM (inactive) | > 100 µM (inactive) | 96.6 µM (inactive) | 18.1 µM (inactive) | > 100 µM (inactive) | 
Oc1cc(-c2ccccc2)nc2ncccc12 | 0.502 µM (active) |  | 1.15 µM (inactive) | 0.0698 µM (active) | 0.127 µM (active) | 0.106 µM (active) | 0.0525 µM (active) | 0.171 µM (active) | 0.0471 µM (active) | 0.0227 | 0.0552 µM (active) | 0.091 µM (active) | 0.272 µM (active) | > 100 µM (inactive) | 0.222 µM (active) | 0.2 µM (active) | 0.0646 µM (active) | 0.16 µM (active) | 0.0655 µM (active) | 
O=C(c1cccc2cc(O)ccc12)c1cn(CCN2CCOCC2)c2ccccc12 | 39.9 µM (inactive) | 29.5 µM (inactive) | 22 µM (inactive) |  | 31.4 µM (inactive) | 21.8 µM (inactive) | 30.3 µM (inactive) | 47.1 µM (inactive) | 28.2 µM (inactive) |  | 20.6 µM (inactive) | 22.8 µM (inactive) | 24.1 µM (inactive) |  | 55.7 µM (inactive) | 20.3 µM (inactive) | 20.7 µM (inactive) |  |  | 23.4 µM (inactive)
CCCCOC(=O)NC(=O)c1cn(CCSCCOC(=O)NCCCCCCNC(=O)OCCSCCn2cc(C(=O)NC(=O)OCCCC)c(=O)[nH]c2=O)c(=O)[nH]c1=O |  | > 100 µM (inactive) | 44.6 µM (inactive) | 26.6 µM (inactive) | 21.5 µM (inactive) | 22.5 µM (inactive) | 32.6 µM (inactive) | > 100 µM (inactive) | > 100 µM (inactive) | > 100 | > 100 µM (inactive) | 29.7 µM (inactive) | > 100 µM (inactive) | 29.4 µM (inactive) | 26.6 µM (inactive) | 37.7 µM (inactive) | > 100 µM (inactive) |  |  | 
N=c1[nH]cnc2c1nnn2C1C=CC(COS(N)(=O)=O)C1 (stereo not given) | 4.43 µM (inactive) | 3.37 µM (inactive) | 9.91 µM (inactive) | 16.7 µM (inactive) |  | 8.45 µM (inactive) |  | 3.59 µM (inactive) | 3.42 µM (inactive) | 6.5 | 4.56 µM (inactive) | 15.8 µM (inactive) | 5.62 µM (inactive) |  | 4.56 µM (inactive) | 14.4 µM (inactive) | 7.33 µM (inactive) | 1.87 µM (inactive) | 5.2 µM (inactive) | 
N#Cc1c(-c2ccco2)c2c(n(C3OC(CO)C(O)C(O)C3O)c1=S)CCCC2 (stereo not given) | > 100 µM (inactive) | > 100 µM (inactive) | > 100 µM (inactive) | > 100 µM (inactive) | > 100 µM (inactive) | > 100 µM (inactive) | > 100 µM (inactive) |  | > 100 µM (inactive) | > 100 | > 100 µM (inactive) | > 100 µM (inactive) |  | > 100 µM (inactive) |  | > 100 µM (inactive) | > 100 µM (inactive) | > 100 µM (inactive) | > 100 µM (inactive) | 
CCCOc1ccc(-c2nc(-c3ccc(/N=C/c4ccc(N(CCOS(C)(=O)=O)CCOS(C)(=O)=O)cc4C)cc3)cs2)cc1 | 22.9 µM (inactive) | 31.9 µM (inactive) | 8 µM (inactive) | 3.73 µM (inactive) | 24.4 µM (inactive) | 6.08 µM (inactive) | 2.16 µM (inactive) | 61.1 µM (inactive) | 5.05 µM (inactive) | 23.4 | 14.9 µM (inactive) | 44.4 µM (inactive) | 11.7 µM (inactive) | 7.5 µM (inactive) | 41.7 µM (inactive) | 20 µM (inactive) | 17.9 µM (inactive) | 29.3 µM (inactive) | 23.6 µM (inactive) | 
Cc1c(CN)c(C)c(CN)c(C)c1CN | > 100 µM (inactive) | > 100 µM (inactive) | 81.5 µM (inactive) | > 100 µM (inactive) | > 100 µM (inactive) |  | 86.7 µM (inactive) | > 100 µM (inactive) | > 100 µM (inactive) | > 100 | > 100 µM (inactive) | > 100 µM (inactive) |  |  | > 100 µM (inactive) | > 100 µM (inactive) | > 100 µM (inactive) |  | > 100 µM (inactive) | > 100 µM (inactive)
CCOC(=O)/C(=C\c1c(C)[nH]c2ccccc12)P(=O)(OCC)OCC | > 100 µM (inactive) | > 100 µM (inactive) | > 100 µM (inactive) | > 100 µM (inactive) |  | > 100 µM (inactive) | > 100 µM (inactive) | > 100 µM (inactive) |  | > 100 | > 100 µM (inactive) | > 100 µM (inactive) |  | > 100 µM (inactive) | > 100 µM (inactive) | > 100 µM (inactive) | > 100 µM (inactive) | > 100 µM (inactive) | > 100 µM (inactive) | 
O=C(Nc1nc2ncn(CCNCCn3cnc4nc(NC(=O)c5ccccc5)[nH]c(=O)c43)c2c(=O)[nH]1)c1ccccc1 | > 100 µM (inactive) | > 100 µM (inactive) | > 100 µM (inactive) | > 100 µM (inactive) | > 100 µM (inactive) | > 100 µM (inactive) | > 100 µM (inactive) | > 100 µM (inactive) | > 100 µM (inactive) | > 100 | > 100 µM (inactive) | > 100 µM (inactive) | > 100 µM (inactive) | > 100 µM (inactive) | > 100 µM (inactive) | > 100 µM (inactive) | > 100 µM (inactive) |  |  | 
CCc1c(C)c(C#N)c(=S)n(C2OC(CO)C(O)C(O)C2O)c1C (stereo not given) | > 100 µM (inactive) | > 100 µM (inactive) | > 100 µM (inactive) | > 100 µM (inactive) | > 100 µM (inactive) | > 100 µM (inactive) | > 100 µM (inactive) |  | > 100 µM (inactive) | > 100 | > 100 µM (inactive) | > 100 µM (inactive) | > 100 µM (inactive) | > 100 µM (inactive) | > 100 µM (inactive) | > 100 µM (inactive) | > 100 µM (inactive) |  | > 100 µM (inactive) | 
